In US20150105252A1, “SUBSTITUTED PYRAZOLES AS HERBICIDES” (E I DU PONT DE NEMOURS AND COMPANY, priority 2013, published 2015):

How the values were obtained:
corn = assay: Test F postemergence; assay type: in vivo, Zea mays; conditions: scale 0 to 100
Excerpt: Seeds of plant species selected from corn (Zea mays), soybean (Glycine max), velvetleaf (Abutilon theophrasti), lambsquarters (Chenopodium album), wild poinsettia (Euphorbia heterophylla), pigweed, palmer (palmer pigweed, Amaranthus palmeri), common waterhemp (Amaranthus rudis), surinam grass (Brachiaria decumbens), large crabgrass (Digitaria sanguinalis), crabgrass, Brazil (Brazilian crabgrass, Digitaria horizontalis), fall panicum (Panicum dichotomiflorum), giant foxtail (Setaria faberii), green foxtail (Setaria viridis), goosegrass (Eleusine indica), johnsongrass (Sorghum halepense), common ragweed (Ambrosia elation), barnyardgrass (Echinochloa crus-galli), southern sandbur (Cenchrus echinatus), arrowleaf sida (Sida rhombifolia), Italian ryegrass (Lolium multiflorum), dayflower, VA (Virginia (VA) dayflower, Commelina virginica), field bindweed (Convolvulus arvensis), cocklebur (common cocklebur, Xanthium strumarium), morningglory (Ipomoea coccinea), nightshade (eastern black nightshade, Solanum ptycanthum), kochia (Kochia scoparia), yellow nutsedge (Cyperus esculentus), and hairy beggarticks (Bidens pilosa), were planted into a silt loam soil and treated preemergence with test chemicals formulated in a non-phytotoxic solvent mixture which included a surfactant.
At the same time, plants from these crop and weed species and also horseweed (Canada horseweed, Conyza canadensis), smartweed (ladysthumb smartweed, Polygonum persicaria), waterhemp_RES1, (ALS & Triazine resistant common waterhemp, Amaranthus rudis), and waterhemp_RES2, (ALS & HPPD resistant common waterhemp, Amaranthus rudis) were treated with postemergence applications of test chemicals formulated in the same manner. Plants ranged in height from 2 to 18 cm for postemergence treatments (1- to 4-leaf stage). Treated plants and controls were maintained in a greenhouse for 14 to 21 days, after which time all species were compared to controls and visually evaluated. Plant response ratings, summarized in Table F, are based on a scale of 0 to 100 where 0 is no effect and 100 is complete control. A dash (-) response means no test result.

crabgrass, Brazil = assay: Test F postemergence; assay type: in vivo, Digitaria horizontalis; conditions: scale 0 to 100
Outline: (§1)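 Pre- and postemergence applications used the same formulation, a non-phytotoxic solvent mixture including surfactant. Soil-applied treatment followed sowing into silt loam, whereas foliar treatment hit plants at the 1- to 4-leaf stage. Scores (0 = no effect, 100 = complete control) were assigned visually after 14–21 days.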

common waterhemp = assay: Test F postemergence; assay type: in vivo, Amaranthus rudis; conditions: scale 0 to 100
Outline: as §1

[1] = test system: waterhemp_RES1 (ALS & Triazine resistant common waterhemp); assay: Test F postemergence; assay type: in vivo, Amaranthus rudis; conditions: scale 0 to 100
Outline: as §1

[2] = test system: waterhemp_RES2 (ALS & HPPD resistant common waterhemp); assay: Test F postemergence; assay type: in vivo, Amaranthus rudis; conditions: scale 0 to 100
Outline: as §1

mustard, black = assay: Test E preemergence; assay type: in vivo, Brassica nigra; conditions: 21 days, scale 0 to 100
Excerpt: (§2) Seeds of plant species selected from bermudagrass (Cynodon dactylon), Surinam grass (Brachiaria decumbens), crabgrass, large (large crabgrass, Digitaria sanguinalis), crabgrass, naked (naked crabgrass, Digitaria nuda), foxtail, green (green foxtail, Setaria viridis), johnsongrass (Sorghum halepense), kochia (Kochia scoparia), morningglory (pitted morningglory, Ipomoea lacunosa), nutsedge, purple (purple nutsedge, Cyperus rotundus), ragweed (common ragweed, Ambrosia elation), mustard, black (black mustard, Brassica nigra), guineagrass (Panicum maximum), dallisgrass (Paspalum dilatatum), barnyardgrass (Echinochloa crus-galli), sandbur (southern sandbur, Cenchrus echinatus), sowthistle (common sowthistle, Sonchus oleraceous), ryegrass, Italian (Italian ryegrass, Lolium multiflorum), signalgrass (broadleaf signalgrass, Brachiaria platyphylla), dayflower, VA (Virginia (VA) dayflower, Commelina virginica), bluegrass (annual bluegrass, Poa annua), quackgrass (Elytrigia repens), mallow (common mallow, Malva sylvestris), buckwheat, wild (wild buckwheat, Polygonum convolvulus), leafy spurge (Euphorbia esula), common chickweed (Stellaria media), wild poinsettia (Euphorbia heterophylla), pigweed, palmer (palmer pigweed, Amaranthus palmeri), and pigweed (redroot pigweed, Amaranthus retroflexus) were planted into a blend of loam soil and sand and treated preemergence with test chemicals formulated in a non-phytotoxic solvent mixture which included a surfactant.
(§3) Treated plants and controls were maintained in a greenhouse for 21 days, after which time all species were compared to controls and visually evaluated. Plant response ratings, summarized in Table E, are based on a scale of 0 to 100 where 0 is no effect and 100 is complete control. A dash (-) response means no test result.

dayflower, VA = assay: Test F postemergence; assay type: in vivo, Commelina virginica; conditions: scale 0 to 100
Outline: as §1

leafy spurge = assay: Test E preemergence; assay type: in vivo, Euphorbia esula; conditions: 21 days, scale 0 to 100
Excerpt: as §2, §3

| SMILES | Plant response rating, Corn (corn; Postemergence, 31 g ai/ha) | Plant response rating, Corn (corn; Postemergence, 125 g ai/ha) | Plant response rating, Corn (corn; Postemergence, 250 g ai/ha) | Plant response rating, Corn (corn; postemergence, 62 g ai/ha) | Plant response rating, Crabgrass, Brazil (crabgrass, Brazil; Postemergence, 31 g ai/ha) | Plant response rating, Crabgrass, Brazil (crabgrass, Brazil; Postemergence, 125 g ai/ha) | Plant response rating, Crabgrass, Brazil (crabgrass, Brazil; Postemergence, 250 g ai/ha) | Plant response rating, Crabgrass, Brazil (crabgrass, Brazil; postemergence, 62 g ai/ha) | Plant response rating, Crabgrass, Brazil (crabgrass, Brazil; postemergence, 500 g ai/ha) | Plant response rating, Common Waterhemp (common waterhemp; Postemergence, 31 g ai/ha) | Plant response rating, Common Waterhemp (common waterhemp; Postemergence, 125 g ai/ha) | Plant response rating, Common Waterhemp (common waterhemp; Postemergence, 250 g ai/ha) | Plant response rating, Common Waterhemp (common waterhemp; postemergence, 62 g ai/ha) | Plant response rating, Common Waterhemp (common waterhemp; postemergence, 500 g ai/ha) | Plant response rating, Waterhemp_RES1 ([1]; Postemergence, 31 g ai/ha) | Plant response rating, Waterhemp_RES1 ([1]; Postemergence, 125 g ai/ha) | Plant response rating, Waterhemp_RES1 ([1]; Postemergence, 250 g ai/ha) | Plant response rating, Waterhemp_RES1 ([1]; postemergence, 62 g ai/ha) | Plant response rating, Waterhemp_RES1 ([1]; postemergence, 500 g ai/ha) | Plant response rating, Waterhemp_RES2 ([2]; Postemergence, 31 g ai/ha) | other results |
| --- | --- | --- | --- | --- | --- | --- | --- | --- | --- | --- | --- | --- | --- | --- | --- | --- | --- | --- | --- | --- | --- |
| CCOc1cc(C(=O)NCC(F)(F)F)nn1Cc1ccnc(C(F)(F)F)c1 [Compound 104] | 10 | 50 | 90 | 25 | 40 | 60 | 90 | 50 | 95 | 75 | 85 | 85 | 80 | 90 | 70 | 90 | 75 | 75 | 85 | 80 | Plant response rating, Waterhemp_RES2 ([2]; Postemergence, 125 g ai/ha): 95; Plant response rating, Waterhemp_RES2 ([2]; Postemergence, 250 g ai/ha): 80; Plant response rating, Waterhemp_RES2 ([2]; postemergence, 62 g ai/ha): 80; Plant response rating, Waterhemp_RES2 ([2]; postemergence, 500 g ai/ha): 85; Plant response rating, Mustard, Black (mustard, black; 16 g ai/ha): 100; Plant response rating, Mustard, Black (mustard, black; 31 g ai/ha): 100; Plant response rating, Mustard, Black (mustard, black; 62 g ai/ha): 100; Plant response rating, Mustard, Black (mustard, black; 125 g ai/ha): 100; Plant response rating, Mustard, Black (mustard, black; 250 g ai/ha): 100; Plant response rating, Dayflower, VA (dayflower, VA; Postemergence, 31 g ai/ha): 35; Plant response rating, Dayflower, VA (dayflower, VA; Postemergence, 125 g ai/ha): 70; Plant response rating, Dayflower, VA (dayflower, VA; Postemergence, 250 g ai/ha): 90; Plant response rating, Dayflower, VA (dayflower, VA; postemergence, 62 g ai/ha): 55; Plant response rating, Dayflower, VA (dayflower, VA; postemergence, 500 g ai/ha): 95; Plant response rating, Leafy Spurge (leafy spurge; 16 g ai/ha): 100; Plant response rating, Leafy Spurge (leafy spurge; 31 g ai/ha): 98; Plant response rating, Leafy Spurge (leafy spurge; 62 g ai/ha): 100; Plant response rating, Leafy Spurge (leafy spurge; 125 g ai/ha): 98; Plant response rating, Leafy Spurge (leafy spurge; 250 g ai/ha): 100 |
| CCCc1cc(C(=O)NCC(F)(F)F)nn1Cc1ccnc(C(F)(F)F)c1 [Compound 105] | 10 | 40 | 80 | 30 | 30 | 50 | 70 | 35 | 90 | 65 | 65 | 75 | 60 | 80 | 70 | 75 | 90 | 70 | 95 | 60 | Plant response rating, Waterhemp_RES2 ([2]; Postemergence, 125 g ai/ha): 75; Plant response rating, Waterhemp_RES2 ([2]; Postemergence, 250 g ai/ha): 85; Plant response rating, Waterhemp_RES2 ([2]; postemergence, 62 g ai/ha): 70; Plant response rating, Waterhemp_RES2 ([2]; postemergence, 500 g ai/ha): 95; Plant response rating, Mustard, Black (mustard, black; 16 g ai/ha): 100; Plant response rating, Mustard, Black (mustard, black; 31 g ai/ha): 100; Plant response rating, Mustard, Black (mustard, black; 62 g ai/ha): 100; Plant response rating, Mustard, Black (mustard, black; 125 g ai/ha): 100; Plant response rating, Mustard, Black (mustard, black; 250 g ai/ha): 100; Plant response rating, Dayflower, VA (dayflower, VA; Postemergence, 31 g ai/ha): 20; Plant response rating, Dayflower, VA (dayflower, VA; Postemergence, 125 g ai/ha): 80; Plant response rating, Dayflower, VA (dayflower, VA; Postemergence, 250 g ai/ha): 85; Plant response rating, Dayflower, VA (dayflower, VA; postemergence, 62 g ai/ha): 50; Plant response rating, Dayflower, VA (dayflower, VA; postemergence, 500 g ai/ha): 90; Plant response rating, Leafy Spurge (leafy spurge; 16 g ai/ha): 100; Plant response rating, Leafy Spurge (leafy spurge; 31 g ai/ha): 100; Plant response rating, Leafy Spurge (leafy spurge; 62 g ai/ha): 100; Plant response rating, Leafy Spurge (leafy spurge; 125 g ai/ha): 100; Plant response rating, Leafy Spurge (leafy spurge; 250 g ai/ha): 100 |
